The values below come from ChEMBL document CHEMBL1201862, “PubChem BioAssay data set” (2004).

Assay [1] concerns the target Lysine-specific demethylase 4C (Homo sapiens, UniProt Q9H3R0). Put plainly: GASC-1 (JMJD2C) histone demethylase inhibitors, dose response, biochemical, DELFIA europium, cherry-picked samples (AID 488835). It is filed as functional.
Assay [2] deals with Vero. Put plainly: cells. As to conditions: Chlorocebus sabaeus. The class given is functional, cell-based.
For assay [3], the system named is Vero. Put plainly: cells. The settings on record: Chlorocebus sabaeus. It is filed as functional.
In assay [4] the target is T1, Tyrosine-protein phosphatase non-receptor type 7 (Homo sapiens, UniProt P35236).
T1 sequence (P35236 whole entry): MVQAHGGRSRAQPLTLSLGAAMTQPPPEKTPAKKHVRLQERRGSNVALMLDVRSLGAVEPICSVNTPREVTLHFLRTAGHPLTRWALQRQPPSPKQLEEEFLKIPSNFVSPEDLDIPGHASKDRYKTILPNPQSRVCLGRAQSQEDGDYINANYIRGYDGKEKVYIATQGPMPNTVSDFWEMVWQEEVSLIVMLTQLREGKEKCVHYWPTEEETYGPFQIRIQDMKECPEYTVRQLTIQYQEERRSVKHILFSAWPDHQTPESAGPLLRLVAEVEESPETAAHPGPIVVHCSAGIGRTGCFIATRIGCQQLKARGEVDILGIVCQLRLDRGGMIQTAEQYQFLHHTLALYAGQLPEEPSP
The class given is functional.

The target in assay [5] is T2, Tyrosine-protein phosphatase non-receptor type 22 (Homo sapiens, UniProt Q9Y2R2).
T2 sequence (Q9Y2R2 whole entry): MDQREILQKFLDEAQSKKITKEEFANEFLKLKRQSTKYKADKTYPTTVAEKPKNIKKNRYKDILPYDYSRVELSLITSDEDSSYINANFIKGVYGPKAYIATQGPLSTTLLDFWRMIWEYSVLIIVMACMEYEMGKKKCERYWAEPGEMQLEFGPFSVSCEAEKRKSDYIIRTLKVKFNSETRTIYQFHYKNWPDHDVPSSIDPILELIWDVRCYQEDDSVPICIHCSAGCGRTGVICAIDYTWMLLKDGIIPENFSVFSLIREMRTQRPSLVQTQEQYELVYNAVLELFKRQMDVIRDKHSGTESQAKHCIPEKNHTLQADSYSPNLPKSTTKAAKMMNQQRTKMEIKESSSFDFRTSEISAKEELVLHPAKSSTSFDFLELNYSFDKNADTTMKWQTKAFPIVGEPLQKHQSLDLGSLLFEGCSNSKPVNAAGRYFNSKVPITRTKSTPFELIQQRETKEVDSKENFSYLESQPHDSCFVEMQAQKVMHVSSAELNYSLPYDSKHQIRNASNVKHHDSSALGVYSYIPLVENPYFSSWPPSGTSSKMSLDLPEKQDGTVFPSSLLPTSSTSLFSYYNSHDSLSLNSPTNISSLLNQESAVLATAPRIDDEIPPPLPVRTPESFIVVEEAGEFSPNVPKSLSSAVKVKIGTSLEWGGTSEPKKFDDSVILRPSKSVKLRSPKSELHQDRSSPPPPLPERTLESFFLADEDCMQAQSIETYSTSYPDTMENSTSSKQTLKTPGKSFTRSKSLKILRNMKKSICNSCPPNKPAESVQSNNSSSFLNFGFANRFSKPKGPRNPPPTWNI
The class given is functional.

Assay [6] has as its target T2, Tyrosine-protein phosphatase non-receptor type 22. It is filed as functional. This is another data set of the same source.
The subject of assay [7] is INS1. Put plainly: protection of INS-1E cells from cytokine death, dose response, ATP luminescence, dry powder (AID 488844). The settings on record: Rattus norvegicus. The class given is functional, cell-based.
Assay [8] has as its target T3, Delta-type opioid receptor (Homo sapiens, UniProt P41143). Put plainly: HTS Image-Based Screen for Antagonists of the DOR Receptor. [Related pubchem assays (depositor defined):AID1777, AID1785, AID1786, AID2133]. The class given is functional.
In assay [9] the target is Mu-type opioid receptor (Homo sapiens, UniProt P35372). Kind of assay: HTS Image-Based Screen for Agonists of the MOR Receptor. [Related pubchem assays (depositor defined):AID1777, AID1785, AID1786, AID2133]. It is filed as functional.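 Note: imaging of beta-arrestin GFP recruitment into spots after receptor activation.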
Assay [10] deals with T3, Delta-type opioid receptor. Kind of assay: HTS Image-Based Screen for Agonists of the DOR Receptor. [Related pubchem assays (depositor defined):AID1777, AID1786, AID2133]. The class given is functional.
Assay [11] addresses T4, Kappa-type opioid receptor (Homo sapiens, UniProt P41145). It is filed as functional.
Assay [12] has as its target T4, Kappa-type opioid receptor. The class given is functional. This is another data set of the same source.
The target of assay [13] is T5, Corticotropin-releasing factor receptor 2/Corticotropin-releasing factor-binding protein (Homo sapiens, UniProt P24387+Q13324).
T5 sequence (Q13324 whole entry): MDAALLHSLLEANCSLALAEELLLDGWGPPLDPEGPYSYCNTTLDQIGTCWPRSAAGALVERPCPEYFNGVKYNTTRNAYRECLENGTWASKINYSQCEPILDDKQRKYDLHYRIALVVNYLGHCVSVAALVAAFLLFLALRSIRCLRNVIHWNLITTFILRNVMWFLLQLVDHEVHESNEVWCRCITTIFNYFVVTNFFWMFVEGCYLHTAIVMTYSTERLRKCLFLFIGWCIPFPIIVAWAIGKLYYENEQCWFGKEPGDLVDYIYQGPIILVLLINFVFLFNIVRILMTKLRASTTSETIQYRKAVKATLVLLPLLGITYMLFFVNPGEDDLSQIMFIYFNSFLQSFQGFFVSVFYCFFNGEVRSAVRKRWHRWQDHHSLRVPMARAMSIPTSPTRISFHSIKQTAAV
T5 sequence (P24387 whole entry): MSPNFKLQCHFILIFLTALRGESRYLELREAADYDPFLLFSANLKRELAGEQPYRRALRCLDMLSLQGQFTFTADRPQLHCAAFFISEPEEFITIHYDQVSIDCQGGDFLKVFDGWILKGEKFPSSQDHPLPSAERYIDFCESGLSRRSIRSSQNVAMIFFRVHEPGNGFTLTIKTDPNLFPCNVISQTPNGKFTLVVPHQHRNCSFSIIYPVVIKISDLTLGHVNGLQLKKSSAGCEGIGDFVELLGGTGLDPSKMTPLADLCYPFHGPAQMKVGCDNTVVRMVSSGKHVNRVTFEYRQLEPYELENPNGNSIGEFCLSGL
Kind of assay: activators of CRF receptor 2 with binding protein – uHTS hits, confirmation (AID 602473). It is filed as functional. The settings on record: read-out: EC50_Mean.

In assay [14] the target is T6, Dual specificity protein phosphatase 3 (Homo sapiens, UniProt P51452). Put plainly: VHR1 phosphatase inhibitors, primary screen, biochemical, absorbance, uHTS (AID 1654).
The target of assay [15] is T6, Dual specificity protein phosphatase 3. Put plainly: VHR1 phosphatase inhibitors, biochemical (AID 1878).
The target of assay [16] is T7, Dual specificity protein phosphatase 6 (Rattus norvegicus, UniProt Q64346).
T7 sequence (Q64346 whole entry): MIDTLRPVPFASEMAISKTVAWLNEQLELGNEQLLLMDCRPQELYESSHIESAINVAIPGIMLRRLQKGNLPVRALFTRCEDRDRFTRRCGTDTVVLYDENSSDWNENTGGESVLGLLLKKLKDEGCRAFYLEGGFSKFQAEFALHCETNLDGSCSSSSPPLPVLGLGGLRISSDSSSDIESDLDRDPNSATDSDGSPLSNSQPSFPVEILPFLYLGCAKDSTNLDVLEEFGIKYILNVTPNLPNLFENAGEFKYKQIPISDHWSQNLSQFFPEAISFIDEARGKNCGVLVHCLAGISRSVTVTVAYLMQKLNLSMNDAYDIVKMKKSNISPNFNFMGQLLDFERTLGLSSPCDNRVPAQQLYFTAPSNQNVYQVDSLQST
Put plainly: MKP-3 phosphatase inhibitors, primary screen, biochemical, rat enzyme, in vitro (AID 425).

Assay [17] deals with Intestinal-type alkaline phosphatase (Mus musculus, UniProt P24822). Put plainly: PubChem AID 488785. The class given is functional.
Assay [18] deals with T8, Alkaline phosphatase, tissue-nonspecific isozyme (Homo sapiens, UniProt P05186).
T8 sequence (P05186 whole entry): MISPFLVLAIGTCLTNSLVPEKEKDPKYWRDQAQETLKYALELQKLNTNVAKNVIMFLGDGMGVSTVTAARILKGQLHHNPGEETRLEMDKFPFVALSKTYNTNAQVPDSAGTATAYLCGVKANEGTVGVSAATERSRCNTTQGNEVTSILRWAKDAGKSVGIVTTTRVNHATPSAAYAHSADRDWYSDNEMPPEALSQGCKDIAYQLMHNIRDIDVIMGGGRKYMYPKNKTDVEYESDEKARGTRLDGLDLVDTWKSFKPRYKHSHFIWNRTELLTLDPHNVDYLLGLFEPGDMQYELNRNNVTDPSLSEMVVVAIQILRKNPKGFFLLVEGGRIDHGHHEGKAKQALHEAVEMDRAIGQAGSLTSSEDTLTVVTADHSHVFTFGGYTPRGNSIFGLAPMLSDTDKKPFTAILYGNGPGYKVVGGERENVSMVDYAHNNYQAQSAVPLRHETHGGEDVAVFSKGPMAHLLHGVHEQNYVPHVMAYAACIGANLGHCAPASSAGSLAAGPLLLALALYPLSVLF
Put plainly: TNAP enzyme inhibition by screening hits, dose response, selectivity assay for mouse IAP inhibitor project, biochemical, human TNAP, uHTS hits (AID 488906). It is filed as functional.

Assay [19] has as its target Intestinal-type alkaline phosphatase (Homo sapiens, UniProt P09923). Kind of assay: inhibition of human intestinal alkaline phosphatase – biochemical, dose response (AID 488876). The class given is functional.
Assay [20] concerns the target DNA (cytosine-5)-methyltransferase 1 (Homo sapiens, UniProt P26358). Put plainly: DNMT1 methyltransferase inhibitors, confirmation, biochemical, fluorescent molecular beacon (AID 602386). The class given is functional.
Assay [21] deals with T9, Small ubiquitin-related modifier 2 (Homo sapiens, UniProt P61956). Kind of assay: SUMO2–SIM peptide binding inhibitors, dose response, selectivity assay for SUMO1 interaction inhibitor project, biochemical, fluorescence polarization, uHTS hits (AID 624385). The class given is functional. As to conditions: read-out: IC50_Mean.
In assay [22] the target is T10, Small ubiquitin-related modifier 1 (Homo sapiens, UniProt P63165). Kind of assay: inhibitors of SUMO1 peptide binding, dose response, biochemical, fluorescence polarization, uHTS hits (AID 624382). The class given is functional. The settings on record: read-out: IC50_Mean.
The target in assay [23] is T9, Small ubiquitin-related modifier 2. Put plainly: inhibitors of SUMO2 protein-protein interaction, dose response, selectivity assay for SUMO1 interaction inhibitor project, biochemical, FRET, human SUMO2, uHTS hits (AID 624384). The class given is functional. As to conditions: read-out: IC50_Mean.
For assay [24], the target named is T10, Small ubiquitin-related modifier 1. Put plainly: inhibitors of SUMO1 partner interactions, dose response, biochemical, FRET (AID 624383). The class given is functional. The settings on record: read-out: IC50_Mean.
For assay [25], the target named is Albumin (Bos taurus, UniProt P02769). Put plainly: Counterscreen for inhibitors of T-cell receptor (TCR)-CD3 interaction: Fluorescence-based biochemical high throughput dose response assay to identify inhibitors of T-cell receptor (TCR)-CD3 interaction using a TAMRA-labeled BSA probe. It is filed as functional.
The target in assay [26] is T11, Caspase-6 (Homo sapiens, UniProt P55212).
T11 sequence (P55212 whole entry): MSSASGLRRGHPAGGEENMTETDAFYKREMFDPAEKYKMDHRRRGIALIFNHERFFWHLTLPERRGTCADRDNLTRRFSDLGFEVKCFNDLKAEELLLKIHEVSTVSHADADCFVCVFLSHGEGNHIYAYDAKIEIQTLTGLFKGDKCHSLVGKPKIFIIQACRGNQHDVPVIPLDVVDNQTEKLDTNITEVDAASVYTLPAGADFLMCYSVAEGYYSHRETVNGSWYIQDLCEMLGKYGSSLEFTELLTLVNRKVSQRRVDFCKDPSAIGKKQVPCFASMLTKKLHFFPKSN
Put plainly: human caspase-6 inhibitors, dose response, biochemical, VEID-R110 fluorescence, cherry-pick (AID 720632).

Assay [27] is described as follows: THP-1 cell cytotoxicity, dose response, cytotoxicity control for Vif-APOBEC3G degradation inhibitor project, THP-1 cells (AID 1117359). It is filed as functional. The settings on record: Human immunodeficiency virus 1, THP-1.

The structures appear in SMILES notation. Calls of active or inactive are those of the source. Where only a bound is given, the exact number is not on record here.

T4 sequence (P41145 whole entry): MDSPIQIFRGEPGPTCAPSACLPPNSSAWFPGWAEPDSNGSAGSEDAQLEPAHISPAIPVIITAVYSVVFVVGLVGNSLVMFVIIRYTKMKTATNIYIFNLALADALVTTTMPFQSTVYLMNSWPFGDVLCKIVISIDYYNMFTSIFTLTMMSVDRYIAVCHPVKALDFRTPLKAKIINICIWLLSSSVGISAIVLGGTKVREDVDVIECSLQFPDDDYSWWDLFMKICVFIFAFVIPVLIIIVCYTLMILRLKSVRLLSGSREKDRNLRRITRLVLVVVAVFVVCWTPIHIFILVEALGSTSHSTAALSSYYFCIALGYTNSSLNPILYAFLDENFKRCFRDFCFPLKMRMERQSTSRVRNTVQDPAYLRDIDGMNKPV
T9 sequence (P61956 whole entry): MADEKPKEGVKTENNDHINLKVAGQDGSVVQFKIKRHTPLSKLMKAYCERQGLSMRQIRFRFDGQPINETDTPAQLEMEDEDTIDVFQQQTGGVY
T3 sequence (P41143 whole entry): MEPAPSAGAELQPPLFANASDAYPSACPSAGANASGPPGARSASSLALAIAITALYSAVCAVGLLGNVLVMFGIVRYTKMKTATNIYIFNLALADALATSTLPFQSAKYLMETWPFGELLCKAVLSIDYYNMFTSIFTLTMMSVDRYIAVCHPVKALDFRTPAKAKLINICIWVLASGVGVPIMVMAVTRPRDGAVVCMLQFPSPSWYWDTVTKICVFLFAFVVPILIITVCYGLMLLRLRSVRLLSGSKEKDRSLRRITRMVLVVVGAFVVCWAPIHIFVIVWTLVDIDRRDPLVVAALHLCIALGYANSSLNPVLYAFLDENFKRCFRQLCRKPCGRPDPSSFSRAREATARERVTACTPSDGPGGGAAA
T6 sequence (P51452 whole entry): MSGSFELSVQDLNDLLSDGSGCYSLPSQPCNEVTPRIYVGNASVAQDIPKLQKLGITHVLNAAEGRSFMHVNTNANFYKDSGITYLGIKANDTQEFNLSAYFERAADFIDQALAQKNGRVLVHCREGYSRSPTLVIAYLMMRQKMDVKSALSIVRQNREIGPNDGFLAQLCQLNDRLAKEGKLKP
T10 sequence (P63165 whole entry): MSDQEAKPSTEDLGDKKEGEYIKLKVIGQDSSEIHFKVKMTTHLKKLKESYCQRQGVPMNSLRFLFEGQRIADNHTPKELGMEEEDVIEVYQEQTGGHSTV
Sequence of Lysine-specific demethylase 4C (Q9H3R0 whole entry): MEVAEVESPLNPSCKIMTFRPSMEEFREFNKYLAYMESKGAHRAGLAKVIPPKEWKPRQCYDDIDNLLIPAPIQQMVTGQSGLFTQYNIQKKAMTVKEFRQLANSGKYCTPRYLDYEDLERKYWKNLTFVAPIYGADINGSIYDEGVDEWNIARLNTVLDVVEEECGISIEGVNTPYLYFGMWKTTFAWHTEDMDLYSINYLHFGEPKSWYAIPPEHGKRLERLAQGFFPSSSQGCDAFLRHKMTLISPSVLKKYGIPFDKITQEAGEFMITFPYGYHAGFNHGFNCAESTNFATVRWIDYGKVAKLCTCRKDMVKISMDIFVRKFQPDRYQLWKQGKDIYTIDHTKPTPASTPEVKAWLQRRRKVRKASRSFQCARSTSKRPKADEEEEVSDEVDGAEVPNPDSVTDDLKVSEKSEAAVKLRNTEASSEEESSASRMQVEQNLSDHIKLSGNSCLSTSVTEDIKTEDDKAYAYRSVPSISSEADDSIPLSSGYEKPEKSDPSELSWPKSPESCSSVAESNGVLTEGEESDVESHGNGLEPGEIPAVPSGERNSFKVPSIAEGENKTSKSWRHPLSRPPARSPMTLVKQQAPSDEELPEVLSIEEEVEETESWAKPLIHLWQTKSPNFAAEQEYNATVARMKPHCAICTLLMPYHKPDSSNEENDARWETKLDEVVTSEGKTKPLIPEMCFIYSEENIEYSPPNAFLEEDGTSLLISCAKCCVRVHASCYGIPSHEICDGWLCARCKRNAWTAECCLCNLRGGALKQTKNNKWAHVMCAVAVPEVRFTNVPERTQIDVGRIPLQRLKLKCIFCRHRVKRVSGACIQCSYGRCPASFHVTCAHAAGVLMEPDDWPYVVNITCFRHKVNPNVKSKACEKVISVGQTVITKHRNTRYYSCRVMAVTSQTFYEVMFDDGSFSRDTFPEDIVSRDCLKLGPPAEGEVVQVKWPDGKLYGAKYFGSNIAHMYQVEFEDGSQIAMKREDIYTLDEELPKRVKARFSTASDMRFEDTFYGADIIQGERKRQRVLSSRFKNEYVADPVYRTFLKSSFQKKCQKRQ
Sequence of Albumin (P02769 whole entry): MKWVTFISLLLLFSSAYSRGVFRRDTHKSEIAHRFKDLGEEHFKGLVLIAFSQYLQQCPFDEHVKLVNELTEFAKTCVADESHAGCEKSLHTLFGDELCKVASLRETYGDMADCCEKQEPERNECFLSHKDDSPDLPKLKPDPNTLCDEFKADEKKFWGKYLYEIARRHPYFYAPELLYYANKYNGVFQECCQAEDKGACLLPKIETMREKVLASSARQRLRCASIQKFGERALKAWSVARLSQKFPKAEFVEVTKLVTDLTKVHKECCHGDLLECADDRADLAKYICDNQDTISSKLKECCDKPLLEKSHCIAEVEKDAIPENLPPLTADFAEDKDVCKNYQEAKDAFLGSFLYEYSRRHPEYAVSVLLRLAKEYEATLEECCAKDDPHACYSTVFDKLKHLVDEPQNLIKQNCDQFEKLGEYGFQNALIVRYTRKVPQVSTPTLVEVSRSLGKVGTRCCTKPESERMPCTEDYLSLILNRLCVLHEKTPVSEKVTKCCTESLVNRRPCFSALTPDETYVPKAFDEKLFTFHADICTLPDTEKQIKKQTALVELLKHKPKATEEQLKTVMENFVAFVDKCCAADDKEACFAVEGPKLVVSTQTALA
Sequence of Mu-type opioid receptor (P35372 whole entry): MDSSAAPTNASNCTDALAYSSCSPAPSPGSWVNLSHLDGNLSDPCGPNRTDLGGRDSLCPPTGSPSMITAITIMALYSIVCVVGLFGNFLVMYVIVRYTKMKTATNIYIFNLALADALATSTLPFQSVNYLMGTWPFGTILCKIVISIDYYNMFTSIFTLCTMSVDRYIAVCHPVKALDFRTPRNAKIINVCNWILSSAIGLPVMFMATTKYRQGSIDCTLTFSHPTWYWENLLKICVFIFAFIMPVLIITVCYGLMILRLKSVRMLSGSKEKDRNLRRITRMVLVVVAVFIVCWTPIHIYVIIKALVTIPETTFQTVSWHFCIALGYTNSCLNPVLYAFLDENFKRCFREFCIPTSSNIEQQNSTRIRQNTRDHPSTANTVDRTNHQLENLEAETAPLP
Sequence of DNA (cytosine-5)-methyltransferase 1 (P26358 whole entry): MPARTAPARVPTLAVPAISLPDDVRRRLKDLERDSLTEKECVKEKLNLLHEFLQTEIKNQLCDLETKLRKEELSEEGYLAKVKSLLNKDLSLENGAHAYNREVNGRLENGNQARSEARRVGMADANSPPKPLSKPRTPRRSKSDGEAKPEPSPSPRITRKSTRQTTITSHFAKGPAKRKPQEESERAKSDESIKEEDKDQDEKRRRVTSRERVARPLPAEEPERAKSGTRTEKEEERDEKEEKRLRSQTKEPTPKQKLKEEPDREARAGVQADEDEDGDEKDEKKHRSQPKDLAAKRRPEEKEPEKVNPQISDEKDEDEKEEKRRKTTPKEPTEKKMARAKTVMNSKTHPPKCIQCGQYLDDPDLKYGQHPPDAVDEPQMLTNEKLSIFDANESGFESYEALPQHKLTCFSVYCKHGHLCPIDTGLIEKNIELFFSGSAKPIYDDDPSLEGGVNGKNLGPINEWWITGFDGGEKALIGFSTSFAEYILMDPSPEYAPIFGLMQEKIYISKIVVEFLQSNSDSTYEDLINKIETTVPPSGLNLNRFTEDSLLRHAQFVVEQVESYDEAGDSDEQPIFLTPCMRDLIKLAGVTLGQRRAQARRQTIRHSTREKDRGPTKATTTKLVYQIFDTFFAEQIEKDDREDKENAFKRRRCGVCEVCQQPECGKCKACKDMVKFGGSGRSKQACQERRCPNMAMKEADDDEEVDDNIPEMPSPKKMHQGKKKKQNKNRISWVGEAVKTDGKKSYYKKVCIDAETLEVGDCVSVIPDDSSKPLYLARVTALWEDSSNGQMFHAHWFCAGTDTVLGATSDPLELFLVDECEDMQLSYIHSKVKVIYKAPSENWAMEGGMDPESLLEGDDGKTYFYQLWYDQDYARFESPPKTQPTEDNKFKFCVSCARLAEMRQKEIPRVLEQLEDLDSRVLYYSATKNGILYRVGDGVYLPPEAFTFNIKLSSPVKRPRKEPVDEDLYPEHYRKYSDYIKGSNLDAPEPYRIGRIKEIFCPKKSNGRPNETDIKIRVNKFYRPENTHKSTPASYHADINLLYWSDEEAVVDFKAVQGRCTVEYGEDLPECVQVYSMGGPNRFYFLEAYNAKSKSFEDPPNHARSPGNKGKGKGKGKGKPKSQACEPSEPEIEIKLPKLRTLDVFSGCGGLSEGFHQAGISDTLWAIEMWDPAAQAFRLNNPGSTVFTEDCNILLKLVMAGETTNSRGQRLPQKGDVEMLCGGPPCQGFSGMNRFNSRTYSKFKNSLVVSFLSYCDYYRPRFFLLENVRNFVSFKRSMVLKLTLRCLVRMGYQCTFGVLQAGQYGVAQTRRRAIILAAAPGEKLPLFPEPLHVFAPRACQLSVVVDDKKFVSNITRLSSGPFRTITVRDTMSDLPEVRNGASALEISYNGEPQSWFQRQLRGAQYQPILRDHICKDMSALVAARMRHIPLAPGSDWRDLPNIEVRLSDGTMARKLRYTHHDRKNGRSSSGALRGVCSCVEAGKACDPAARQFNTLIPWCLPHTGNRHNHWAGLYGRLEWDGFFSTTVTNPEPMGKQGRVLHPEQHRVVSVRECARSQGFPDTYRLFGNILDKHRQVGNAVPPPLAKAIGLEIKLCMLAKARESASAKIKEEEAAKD

For the molecule `CCOc1ccc(N2C(=O)CC(N(O)c3ccccc3)C2=O)cc1` (stereo not drawn), in assay [1], the AC50 is 12.7 µM (active).
With `COc1cccc(/C=C/C(=O)c2ccc3c(c2)OCO3)c1OC`, the IC50 in assay [2] was > 25 µM (active). Further, in assay [3], the CC50 is > 25 µM (active).
Consider `Cc1ccc(C)n1-c1ccc(-c2cc[nH]n2)cc1`, for which the IC50 in assay [4], in assay [5] and in assay [6] was > 79.4 µM (inactive) each time.
Turning to `COc1ccc(S(=O)(=O)N(C)C[C@H]2Oc3c(NC(=O)Nc4cccc5ccccc45)cccc3C(=O)N([C@H](C)CO)C[C@H]2C)cc1`, the AC50 in [7] is 41.5 µM (active).
Take `O=C(c1ccc([N+](=O)[O-])cc1)N(Cc1ccc(Cl)cc1)N1C(=O)CCCC1=O`: in [8], the IC50 is > 32 µM (inactive). Moreover, the EC50 in [9] is > 32 µM (inactive); in assay [10], > 32 µM (inactive); in assay [11], more than 35 µM; in assay [12], 5.66 µM; in [13] it was 709 nM (active).
On to `N#C/C(=C\c1c(Oc2ccccc2Cl)nc2ccccn2c1=O)C(=O)NC1CCS(=O)(=O)C1` (stereo not drawn), for which the IC50 in assay [2] was > 25 µM (active).
Regarding `O=C(N/N=C/c1cn(Cc2cccc(F)c2)c2ccccc12)c1cc(O)cc(O)c1`, the IC50 is 4.76 µM (active) in [14]; 2.08 µM (active) in [15]; 74.4 µM (active) in assay [16]; 2.7 µM (active) in assay [17]; > 100 µM (inactive) in [18]; > 100 µM (inactive) in [19]. Moreover, the IC50 in assay [20] was 2.39 µM (active); in assay [21], 50.6 µM (inactive); in assay [22], 10.3 µM (active); in [23], 2.49 µM (active); in assay [24], 6.82 µM (active); in [25], > 94.1 µM (inactive). Besides, the AC50 in [26] was 461 nM (active). The cytotoxic concentration (CC50) in [27] was > 40 µM (active).
